In publication PMC5499580 (Nucleic Acids Research, 2017):

Experiments:
ribosome [1] = settings: PURExpress, osmC mRNA; 50 μM; worded as known, no reference given; cited from earlier work
23S rRNA mutation A2503G = settings: cited from earlier work
[2] = system: peptidyl transferase reaction; settings: polyU-guided in vitro translation system; cited from earlier work
ribosome [3] = settings: compared with MADU on osmC mRNA; cited from earlier work
ribosome [4] = experiment: Toe-printing analysis; assay type: biochemical
[5] = system: E. coli S30 extract translation system; assay type: biochemical; settings: 5 μM, luciferase mRNA, 37°C, 30 min
VatB acetyltransferase = settings: cited from earlier work

## C=C(NC(=O)C(=C)NC(=O)c1csc(C2=N[C@@H]3c4csc(n4)[C@H]4NC(=O)c5csc(n5)[C@H]([C@](C)(O)[C@@H](C)O)NC(=O)[C@H]5CSC(=N5)/C(=C/C)NC(=O)[C@H]([C@@H](C)O)NC(=O)c5csc(n5)[C@]3(CC2)NC(=O)[C@H](C)NC(=O)C(=C)NC(=O)[C@H](C)NC(=O)[C@H]([C@@H](C)CC)N[C@@H]2C=Cc3c([C@H](C)O)cc(nc3[C@H]2O)C(=O)O[C@@H]4C)n1)C(N)=O [Thiostrepton, thiostrepton]
Ribosome [1]
  Ribosome stalling by positive control (first codon): stall ribosomes at the first codon

## O=C(N[C@H](CO)[C@H](O)c1ccc([N+](=O)[O-])cc1)C(Cl)Cl [chloramphenicol]
23S rRNA mutation A2503G
  Resistance conferred by A2503G: confers resistance

## CC1=C\[C@@H](O)CC(=O)Cc2nc(co2)C(=O)N2CCC=C2C(=O)O[C@H](C(C)C)[C@H](C)/C=C/C(=O)NC\C=C\1 [virginiamycin M]
[2]
  Effect on peptidyl transferase reaction: specifically inhibits the peptidyl transferase reaction

## CC1=C\[C@@H](O)CC(=O)Cc2nc(co2)C(=O)N2CCC[C@@H]2C(=O)O[C@H](C(C)C)[C@H](C)/C=C/C(=O)NC\C=C\1 [pristinamycin IIB]
Ribosome [3]
  Ribosome stalling in toe-printing: ribosome stalling at the start codon

## CC1=C\[C@@H](O)C[C@@H](O)Cc2nc(co2)C(=O)N[C@H](C)C(=O)O[C@H](C(C)C)[C@H](C)/C=C/C(=O)NC\C=C\1 [MADU, madumycin II]
Ribosome [4]; PURExpress cell-free system, osmC mRNA, 0.5, 5 and 50 μM MADU
  Ribosome stalling on osmC mRNA: dose-dependent ribosome stalling at the start codon
Ribosome [4]; PURExpress, 5 µM MADU, mutated osmC mRNAs
  Progression to second codon, Gly vs Ile second codon: noticeably more ribosomes progressing to the second codon in the case of glycine as compared with the isoleucine
[5]
  Reduction of the efficiency of protein synthesis: > 100 fold
VatB acetyltransferase
  Effect of VatB acetylation of C12-hydroxyl on activity: renders the drug inactive
